Experimental data reported in patent publication US12539292B2, “BRM targeting compounds and associated methods of use” (Arvinas Operations, Inc., priority 2018, dated 2026).

Molecular target: T1, BRM (Homo sapiens, UniProt P51531)
T1 construct: In-Cell Western Screen of BRM Degradation in SW1573 Cells; endogenous in cells; host or cells: SW1573
Experiment: In-cell Western screen of BRM degradation in SW1573 cells (Dmax and DC50)
Format: cell-based
Details: BRM degradation, SW1573 cells; for DC50: read-out: DC50; for Dmax: tested at the top concentration of between 0.3 and 10 μM, read-out: Dmax (%) (% degraded)
Outline: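 After adhering overnight, cells received compound for 18-20 hours. They were then washed in cold DPBS, fixed with 4% PFA for 20 min and permeabilized for 30 min. Blocking and fluorescent secondary staining followed before imaging.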

T1 sequence (P51531 whole entry): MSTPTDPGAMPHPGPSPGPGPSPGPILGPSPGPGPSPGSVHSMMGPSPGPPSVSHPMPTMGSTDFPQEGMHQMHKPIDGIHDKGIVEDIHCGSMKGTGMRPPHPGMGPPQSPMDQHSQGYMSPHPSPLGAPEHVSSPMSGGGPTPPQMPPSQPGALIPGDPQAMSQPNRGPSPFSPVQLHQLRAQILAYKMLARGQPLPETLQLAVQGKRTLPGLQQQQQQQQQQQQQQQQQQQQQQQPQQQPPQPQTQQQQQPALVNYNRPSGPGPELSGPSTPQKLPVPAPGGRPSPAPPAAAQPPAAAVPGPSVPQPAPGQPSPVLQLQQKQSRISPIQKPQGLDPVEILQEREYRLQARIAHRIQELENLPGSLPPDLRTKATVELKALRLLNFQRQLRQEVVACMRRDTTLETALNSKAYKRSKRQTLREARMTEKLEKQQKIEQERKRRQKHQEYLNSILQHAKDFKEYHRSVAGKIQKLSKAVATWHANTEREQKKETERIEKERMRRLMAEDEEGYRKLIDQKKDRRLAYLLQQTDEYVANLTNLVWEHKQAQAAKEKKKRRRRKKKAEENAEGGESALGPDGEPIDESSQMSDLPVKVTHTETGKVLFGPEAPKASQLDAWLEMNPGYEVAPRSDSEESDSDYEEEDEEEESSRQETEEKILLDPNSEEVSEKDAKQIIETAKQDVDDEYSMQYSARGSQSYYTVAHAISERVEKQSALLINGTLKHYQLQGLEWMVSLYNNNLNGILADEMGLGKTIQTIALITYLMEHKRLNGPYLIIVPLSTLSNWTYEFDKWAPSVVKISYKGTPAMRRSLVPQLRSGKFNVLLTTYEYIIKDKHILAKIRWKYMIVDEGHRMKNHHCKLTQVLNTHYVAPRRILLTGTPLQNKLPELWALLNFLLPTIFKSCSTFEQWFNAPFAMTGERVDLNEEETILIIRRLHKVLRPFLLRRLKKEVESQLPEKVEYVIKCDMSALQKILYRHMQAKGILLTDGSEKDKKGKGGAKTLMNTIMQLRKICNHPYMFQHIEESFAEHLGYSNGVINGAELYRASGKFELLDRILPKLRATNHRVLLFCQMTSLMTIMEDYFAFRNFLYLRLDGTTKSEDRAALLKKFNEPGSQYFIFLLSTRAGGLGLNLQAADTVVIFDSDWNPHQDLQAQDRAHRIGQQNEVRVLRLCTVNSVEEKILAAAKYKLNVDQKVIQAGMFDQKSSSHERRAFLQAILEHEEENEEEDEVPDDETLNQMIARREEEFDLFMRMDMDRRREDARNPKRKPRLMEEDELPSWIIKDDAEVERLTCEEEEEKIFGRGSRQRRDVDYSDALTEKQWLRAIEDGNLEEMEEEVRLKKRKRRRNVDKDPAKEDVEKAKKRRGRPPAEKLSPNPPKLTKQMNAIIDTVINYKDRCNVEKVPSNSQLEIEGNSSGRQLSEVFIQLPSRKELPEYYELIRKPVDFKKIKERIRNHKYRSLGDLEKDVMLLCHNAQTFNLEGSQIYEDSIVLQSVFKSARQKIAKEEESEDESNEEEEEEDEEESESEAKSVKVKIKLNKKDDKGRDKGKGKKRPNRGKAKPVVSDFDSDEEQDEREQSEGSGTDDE

Row | SMILES | DC50 [nM] | Dmax [%]
1 | Cc1ncsc1-c1ccc([C@H](C)NC(=O)[C@@H]2C[C@@H](O)CN2C(=O)[C@H](c2cc(OCC#Cc3ncc(O[C@H]4C[C@H](Oc5cc(N6C7CCC6CN(c6cc(-c8ccccc8O)nnc6N)C7)ccn5)C4)cn3)no2)C(C)C)cc1 [compound 231, (2S,4R)-1-((2S)-2-(3-((3-(5-((1r,3S)-3-((4-(3-(3-amino-6-(2-hydroxyphenyl)pyridazin-4-yl)-3,8-diazabicyclo[3.2.1]octan-8-yl)pyridin-2-yl)oxy)cyclobutoxy)pyrimidin-2-yl)prop-2-yn-1-yl)oxy)isoxazol-5-yl)-3-methylbutanoyl)-4-hydroxy-N-((S)-1-(4-(4-methylthiazol-5-yl)phenyl)ethyl)pyrrolidine-2-carboxamide] | < 2.5 | > 75
2 | Cc1ncsc1-c1ccc([C@H](C)NC(=O)[C@@H]2C[C@@H](O)CN2C(=O)[C@@H](c2cc(OCC#Cc3ncc(O[C@H]4C[C@H](Oc5cc(N6C7CCC6CN(c6cc(-c8ccccc8O)nnc6N)C7)ccn5)C4)cn3)no2)C(C)C)cc1 [compound 232, (2S,4R)-1-((2R)-2-(3-((3-(5-((1r,3R)-3-((4-(3-(3-amino-6-(2-hydroxyphenyl)pyridazin-4-yl)-3,8-diazabicyclo[3.2.1]octan-8-yl)pyridin-2-yl)oxy)cyclobutoxy)pyrimidin-2-yl)prop-2-yn-1-yl)oxy)isoxazol-5-yl)-3-methylbutanoyl)-4-hydroxy-N-((S)-1-(4-(4-methylthiazol-5-yl)phenyl)ethyl)pyrrolidine-2-carboxamide] | < 2.5 | > 75
3 | Cc1nccn1-c1ccc([C@H](C)NC(=O)[C@@H]2C[C@@H](O)CN2C(=O)[C@H](c2cc(OCC#Cc3ccc(O[C@H]4C[C@H](Oc5cc(N6C7CCC6CN(c6cc(-c8ccccc8O)nnc6N)C7)ccn5)C4)cn3)no2)C(C)C)cc1 [compound 233, (2S,4R)-1-((2S)-2-(3-((3-(5-((1r,3S)-3-((4-(3-(3-amino-6-(2-hydroxyphenyl)pyridazin-4-yl)-3,8-diazabicyclo[3.2.1]octan-8-yl)pyridin-2-yl)oxy)cyclobutoxy)pyridin-2-yl)prop-2-yn-1-yl)oxy)isoxazol-5-yl)-3-methylbutanoyl)-4-hydroxy-N-((S)-1-(4-(2-methyl-1H-imidazol-1-yl)phenyl)ethyl)pyrrolidine-2-carboxamide] | 10 to 30 | > 75
4 | Cc1nccn1-c1ccc([C@H](C)NC(=O)[C@@H]2C[C@@H](O)CN2C(=O)[C@@H](c2cc(OCC#Cc3ccc(O[C@H]4C[C@H](Oc5cc(N6C7CCC6CN(c6cc(-c8ccccc8O)nnc6N)C7)ccn5)C4)cn3)no2)C(C)C)cc1 [compound 234, (2S,4R)-1-((2R)-2-(3-((3-(5-((1r,3R)-3-((4-(3-(3-amino-6-(2-hydroxyphenyl)pyridazin-4-yl)-3,8-diazabicyclo[3.2.1]octan-8-yl)pyridin-2-yl)oxy)cyclobutoxy)pyridin-2-yl)prop-2-yn-1-yl)oxy)isoxazol-5-yl)-3-methylbutanoyl)-4-hydroxy-N-((S)-1-(4-(2-methyl-1H-imidazol-1-yl)phenyl)ethyl)pyrrolidine-2-carboxamide] | < 2.5 | > 75
5 | CC(=O)N1CC(NC(=O)[C@@H]2C[C@@H](O)CN2C(=O)[C@H](c2cc(OCCN3CCN(CCOc4cc(N5C6CCC5CN(c5cc(-c7ccccc7O)nnc5N)C6)ccn4)CC3)no2)C(C)C)(c2ccc(-c3scnc3C)cc2)C1 [compound 235, (2S,4R)-N-(1-acetyl-3-(4-(4-methylthiazol-5-yl)phenyl)azetidin-3-yl)-1-((2S)-2-(3-(2-(4-(2-((4-(3-(3-amino-6-(2-hydroxyphenyl)pyridazin-4-yl)-3,8-diazabicyclo[3.2.1]octan-8-yl)pyridin-2-yl)oxy)ethyl)piperazin-1-yl)ethoxy)isoxazol-5-yl)-3-methylbutanoyl)-4-hydroxypyrrolidine-2-carboxamide] | > 30 | –
6 | Cc1ncsc1-c1ccc([C@H](C)NC(=O)[C@@H]2C[C@@H](O)CN2C(=O)[C@H](c2cc(OCC#Cc3ccc(O[C@H]4C[C@H](Oc5cc(N6C7CCC6CN(c6cc(-c8ccccc8O)nnc6N)C7)ccn5)C4)cn3)no2)C(C)C)cn1 [compound 236, (2S,4R)-1-((2S)-2-(3-((3-(5-((1r,3S)-3-((4-(3-(3-amino-6-(2-hydroxyphenyl)pyridazin-4-yl)-3,8-diazabicyclo[3.2.1]octan-8-yl)pyridin-2-yl)oxy)cyclobutoxy)pyridin-2-yl)prop-2-yn-1-yl)oxy)isoxazol-5-yl)-3-methylbutanoyl)-4-hydroxy-N-((S)-1-(6-(4-methylthiazol-5-yl)pyridin-3-yl)ethyl)pyrrolidine-2-carboxamide] | > 30 | > 75
7 | Cc1ncsc1-c1ccc([C@H](C)NC(=O)[C@@H]2C[C@@H](O)CN2C(=O)[C@@H](c2cc(OCC#Cc3ccc(O[C@H]4C[C@H](Oc5cc(N6C7CCC6CN(c6cc(-c8ccccc8O)nnc6N)C7)ccn5)C4)cn3)no2)C(C)C)cn1 [compound 237, (2S,4R)-1-((2R)-2-(3-((3-(5-((1r,3R)-3-((4-(3-(3-amino-6-(2-hydroxyphenyl)pyridazin-4-yl)-3,8-diazabicyclo[3.2.1]octan-8-yl)pyridin-2-yl)oxy)cyclobutoxy)pyridin-2-yl)prop-2-yn-1-yl)oxy)isoxazol-5-yl)-3-methylbutanoyl)-4-hydroxy-N-((S)-1-(6-(4-methylthiazol-5-yl)pyridin-3-yl)ethyl)pyrrolidine-2-carboxamide] | < 2.5 | > 75
8 | Cc1ncsc1-c1ccc([C@H](C)NC(=O)[C@@H]2C[C@@H](O)CN2C(=O)[C@@H](c2cc(OCCN3CCC(O[C@H]4C[C@H](C#CCn5cc(-c6cc(-c7ccccc7O)nnc6N)cn5)C4)CC3)no2)C(C)C)cc1 [compound 238, (2S,4R)-1-((R)-2-(3-(2-(4-((1r,3R)-3-(3-(4-(3-amino-6-(2-hydroxyphenyl)pyridazin-4-yl)-1H-pyrazol-1-yl)prop-1-yn-1-yl)cyclobutoxy)piperidin-1-yl)ethoxy)isoxazol-5-yl)-3-methylbutanoyl)-4-hydroxy-N-((S)-1-(4-(4-methylthiazol-5-yl)phenyl)ethyl)pyrrolidine-2-carboxamide] | < 2.5 | > 75
9 | Cc1ncsc1-c1ccc([C@H](C)NC(=O)[C@@H]2C[C@@H](O)CN2C(=O)[C@H](c2cc(OCCN3CCC(O[C@H]4C[C@H](Oc5cc(N6C7CCC6CN(c6cc(-c8ccccc8O)nnc6N)C7)ccn5)C4)CC3)no2)C(C)C)c(F)c1 [compound 239, (2S,4R)-1-((2S)-2-(3-(2-(4-((1r,3S)-3-((4-(3-(3-amino-6-(2-hydroxyphenyl)pyridazin-4-yl)-3,8-diazabicyclo[3.2.1]octan-8-yl)pyridin-2-yl)oxy)cyclobutoxy)piperidin-1-yl)ethoxy)isoxazol-5-yl)-3-methylbutanoyl)-N-((S)-1-(2-fluoro-4-(4-methylthiazol-5-yl)phenyl)ethyl)-4-hydroxypyrrolidine-2-carboxamide] | > 30 | > 75
10 | Cc1ncsc1-c1ccc([C@H](C)NC(=O)[C@@H]2C[C@@H](O)CN2C(=O)[C@@H](c2cc(OCCN3CCC(O[C@H]4C[C@H](Oc5cc(N6C7CCC6CN(c6cc(-c8ccccc8O)nnc6N)C7)ccn5)C4)CC3)no2)C(C)C)c(F)c1 [compound 240, (2S,4R)-1-((2R)-2-(3-(2-(4-((1r,3R)-3-((4-(3-(3-amino-6-(2-hydroxyphenyl)pyridazin-4-yl)-3,8-diazabicyclo[3.2.1]octan-8-yl)pyridin-2-yl)oxy)cyclobutoxy)piperidin-1-yl)ethoxy)isoxazol-5-yl)-3-methylbutanoyl)-N-((S)-1-(2-fluoro-4-(4-methylthiazol-5-yl)phenyl)ethyl)-4-hydroxypyrrolidine-2-carboxamide] | < 2.5 | > 75
11 | Cc1ncsc1-c1ccc([C@H](C)NC(=O)[C@@H]2C[C@@H](O)CN2C(=O)[C@H](c2cc(O[C@H]3C[C@H](CN4CCC(O[C@H]5C[C@H](Oc6cc(N7C8CCC7CN(c7cc(-c9ccccc9O)nnc7N)C8)ccn6)C5)CC4)C3)no2)C(C)C)cc1 [compound 241, (2S,4R)-1-((2S)-2-(3-((1R,3S)-3-((4-((1r,3R)-3-((4-(3-(3-amino-6-(2-hydroxyphenyl)pyridazin-4-yl)-3,8-diazabicyclo[3.2.1]octan-8-yl)pyridin-2-yl)oxy)cyclobutoxy)piperidin-1-yl)methyl)cyclobutoxy)isoxazol-5-yl)-3-methylbutanoyl)-4-hydroxy-N-((S)-1-(4-(4-methylthiazol-5-yl)phenyl)ethyl)pyrrolidine-2-carboxamide] | 2.5 to 10 | > 75
12 | Cc1ncsc1-c1ccc([C@H](C)NC(=O)[C@@H]2C[C@@H](O)CN2C(=O)[C@@H](c2cc(O[C@H]3C[C@H](CN4CCC(O[C@H]5C[C@H](Oc6cc(N7C8CCC7CN(c7cc(-c9ccccc9O)nnc7N)C8)ccn6)C5)CC4)C3)no2)C(C)C)cc1 [compound 242, (2S,4R)-1-((2R)-2-(3-((1R,3R)-3-((4-((1r,3R)-3-((4-(3-(3-amino-6-(2-hydroxyphenyl)pyridazin-4-yl)-3,8-diazabicyclo[3.2.1]octan-8-yl)pyridin-2-yl)oxy)cyclobutoxy)piperidin-1-yl)methyl)cyclobutoxy)isoxazol-5-yl)-3-methylbutanoyl)-4-hydroxy-N-((S)-1-(4-(4-methylthiazol-5-yl)phenyl)ethyl)pyrrolidine-2-carboxamide] | < 2.5 | > 75
